Experimental data from publication PMC4013053, “Identification of Selective Small Molecule Inhibitors of the Nucleotide-Binding Oligomerization Domain 1 (NOD1) Signaling Pathway” (PLoS ONE, 2014).

Legend:
NOD2 = NOD2 (Homo sapiens, UniProt Q9HC29); test: MDP-stimulated IL-8 release in 293/hNOD2 cells; assay type: cell-based; conditions: HEK293 stably expressing human NOD2, IL-8 released into medium
TNFR1 = biological target: T1, TNFR1 (Homo sapiens, UniProt P19438); test: TNFα-stimulated IL-8 release in 293/hNOD1 cells; assay type: cell-based; conditions: IL-8 released into medium
T1 construct: TNFR1 (TNFα stimulated IL-8 secretion in 293/hNOD1 cells); host or cells: 293/hNOD1 (HEK293)
T1 sequence (P19438 30-455): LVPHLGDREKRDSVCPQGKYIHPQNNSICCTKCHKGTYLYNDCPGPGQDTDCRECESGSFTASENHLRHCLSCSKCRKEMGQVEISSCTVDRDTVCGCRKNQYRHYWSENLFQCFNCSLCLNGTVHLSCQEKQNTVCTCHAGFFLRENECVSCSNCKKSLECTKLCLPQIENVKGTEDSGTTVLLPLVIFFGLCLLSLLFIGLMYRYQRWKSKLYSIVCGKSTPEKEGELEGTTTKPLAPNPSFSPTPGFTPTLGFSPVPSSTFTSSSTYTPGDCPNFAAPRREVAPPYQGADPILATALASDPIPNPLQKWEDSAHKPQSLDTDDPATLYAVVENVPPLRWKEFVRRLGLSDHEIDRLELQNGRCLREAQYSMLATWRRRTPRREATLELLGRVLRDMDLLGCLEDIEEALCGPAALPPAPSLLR
Description: Inhibitors of iE-DAP-stimulated IL-8 release were screened in a 1536-well assay in which 293/hNOD1 cells (5000 cells/well) in DMEM high glucose medium supplemented with 0.1% FBS and 10 µg/mL Blasticidin S were stimulated with 60 ng/mL (200 nM) iE-DAP (EC80) in the presence of 10 µM compounds. After 24 hours the amount of IL-8 secreted into the medium was determined by homogeneous time resolved fluorescence (HTRF) assay by the direct addition of a 1∶1 mix of europium cryptate and XL665-conjugated anti-IL-8 antibodies according to the manufacturer’s instructions (Cisbio). Fluorescence was measured after 2 hours in a ViewLux imager using UMB-AMC excitation and 618–671 nm emission filters (Perkin Elmer). […] Inhibition of TNFR1-induced IL-8 release was performed with 293/hNOD1 cells stimulated with 20 ng/mL (∼EC95) rhTNFα.
A high-throughput screen of about 2.2 million compounds was conducted for inhibitors of the NOD1 signaling pathway using suppression of iE-DAP stimulated IL-8 secretion in HEK293 cells stably expressing human NOD1 (293/hNOD1 cells). […] These assays were chosen to assess the selectivity of hits because the signaling pathways activated by these receptors converge at the level of the TAB/TAK1/IKK complex.

TLR2 = TLR2 (Homo sapiens, UniProt O60603); test: Pam2CSK4-stimulated IL-8 release in 293/hTLR2 cells; assay type: cell-based; conditions: IL-8 released into medium
[1] = Permeability across an artificial membrane; assay type: in vitro ADME; conditions: PAMPA
Source text: (§1) Physicochemical analyses of compounds were completed at GSK.

human serum albumin = human serum albumin (Homo sapiens, UniProt P02768); test: Human serum albumin (HSA) binding; assay type: in vitro ADME
Source text: as §1

NOD1 = biological target: T2, NOD1 (Homo sapiens, UniProt Q9Y239); test: Tri-DAP-stimulated IL-8 secretion in primary human monocytes; assay type: cell-based; parameters: Monocytes were purified from heparinized human whole blood; endogenous in cells; host or cells: primary human blood monocytes; conditions: human primary peripheral blood monocytes, IL-8 released into medium; read-out: IC50 Monocyte Tri-DAP
T2 sequence (Q9Y239 1-953): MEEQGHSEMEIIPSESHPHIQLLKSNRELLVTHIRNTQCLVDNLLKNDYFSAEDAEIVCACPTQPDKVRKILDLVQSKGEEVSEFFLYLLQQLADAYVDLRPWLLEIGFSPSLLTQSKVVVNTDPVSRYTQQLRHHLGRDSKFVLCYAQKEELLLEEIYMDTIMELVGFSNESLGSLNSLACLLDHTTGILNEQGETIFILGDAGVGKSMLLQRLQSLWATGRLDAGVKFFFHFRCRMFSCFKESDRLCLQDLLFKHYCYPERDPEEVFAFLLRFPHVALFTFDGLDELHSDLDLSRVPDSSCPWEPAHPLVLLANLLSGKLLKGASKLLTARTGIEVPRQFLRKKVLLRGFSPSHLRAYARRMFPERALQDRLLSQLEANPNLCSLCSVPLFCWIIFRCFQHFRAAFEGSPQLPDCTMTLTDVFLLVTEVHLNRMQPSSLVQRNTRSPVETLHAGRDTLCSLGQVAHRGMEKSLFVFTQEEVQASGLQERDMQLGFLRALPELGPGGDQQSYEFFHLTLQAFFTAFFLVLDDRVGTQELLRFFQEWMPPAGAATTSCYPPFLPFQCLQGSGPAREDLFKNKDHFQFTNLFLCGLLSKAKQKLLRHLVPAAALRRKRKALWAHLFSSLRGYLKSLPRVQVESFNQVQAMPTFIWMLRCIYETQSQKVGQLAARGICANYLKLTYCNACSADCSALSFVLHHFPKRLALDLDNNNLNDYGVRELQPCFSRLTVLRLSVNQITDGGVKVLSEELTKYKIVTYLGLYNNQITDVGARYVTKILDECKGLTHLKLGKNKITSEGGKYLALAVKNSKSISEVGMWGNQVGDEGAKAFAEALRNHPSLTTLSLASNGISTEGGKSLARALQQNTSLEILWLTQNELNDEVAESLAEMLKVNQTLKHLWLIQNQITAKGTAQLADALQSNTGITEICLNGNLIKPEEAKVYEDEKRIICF
Description: Monocytes were purified from heparinized human whole blood by centrifugation on Ficoll (Histopaque 1077) followed by Percoll gradients. Monocyte purity was >95% by morphological assessment of Wright’s stained cytospins. Cells were seeded at 100,000 per well in 96-well plates in RPMI containing 10%HI-FBS, pre-incubated for 1 hour with compounds, and then stimulated with either 25 µg/mL Tri-DAP or 1 µg/mL MDP. The concentration of IL-8 in medium samples collected after 24-hour treatment was determined by HTRF whereas IL-1β, IL-6 and TNFα were measured using the MS6000 human pro-inflammatory-4 II tissue culture kit (Meso Scale Discovery).

Chain of TLR2 (O60603 21-784): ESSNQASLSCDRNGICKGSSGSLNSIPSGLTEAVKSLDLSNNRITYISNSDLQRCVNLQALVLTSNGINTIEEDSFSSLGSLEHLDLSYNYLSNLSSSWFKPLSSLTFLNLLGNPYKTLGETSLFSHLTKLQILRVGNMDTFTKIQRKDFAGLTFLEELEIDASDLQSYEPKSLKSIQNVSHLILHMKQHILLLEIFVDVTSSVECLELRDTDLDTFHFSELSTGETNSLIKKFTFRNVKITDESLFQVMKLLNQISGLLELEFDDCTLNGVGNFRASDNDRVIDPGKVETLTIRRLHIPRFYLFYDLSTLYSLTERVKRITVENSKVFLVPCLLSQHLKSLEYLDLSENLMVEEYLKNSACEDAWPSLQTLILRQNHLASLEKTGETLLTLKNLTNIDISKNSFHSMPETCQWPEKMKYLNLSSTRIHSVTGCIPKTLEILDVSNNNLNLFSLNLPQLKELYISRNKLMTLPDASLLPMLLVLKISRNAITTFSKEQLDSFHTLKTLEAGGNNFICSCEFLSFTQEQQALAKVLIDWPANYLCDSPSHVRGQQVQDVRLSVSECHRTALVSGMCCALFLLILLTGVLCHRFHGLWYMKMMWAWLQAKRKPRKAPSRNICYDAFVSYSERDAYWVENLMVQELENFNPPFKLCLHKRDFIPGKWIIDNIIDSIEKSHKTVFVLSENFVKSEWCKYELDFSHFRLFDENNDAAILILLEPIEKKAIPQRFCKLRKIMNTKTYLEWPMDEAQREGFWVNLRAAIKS
Chain of NOD2 (Q9HC29 whole entry): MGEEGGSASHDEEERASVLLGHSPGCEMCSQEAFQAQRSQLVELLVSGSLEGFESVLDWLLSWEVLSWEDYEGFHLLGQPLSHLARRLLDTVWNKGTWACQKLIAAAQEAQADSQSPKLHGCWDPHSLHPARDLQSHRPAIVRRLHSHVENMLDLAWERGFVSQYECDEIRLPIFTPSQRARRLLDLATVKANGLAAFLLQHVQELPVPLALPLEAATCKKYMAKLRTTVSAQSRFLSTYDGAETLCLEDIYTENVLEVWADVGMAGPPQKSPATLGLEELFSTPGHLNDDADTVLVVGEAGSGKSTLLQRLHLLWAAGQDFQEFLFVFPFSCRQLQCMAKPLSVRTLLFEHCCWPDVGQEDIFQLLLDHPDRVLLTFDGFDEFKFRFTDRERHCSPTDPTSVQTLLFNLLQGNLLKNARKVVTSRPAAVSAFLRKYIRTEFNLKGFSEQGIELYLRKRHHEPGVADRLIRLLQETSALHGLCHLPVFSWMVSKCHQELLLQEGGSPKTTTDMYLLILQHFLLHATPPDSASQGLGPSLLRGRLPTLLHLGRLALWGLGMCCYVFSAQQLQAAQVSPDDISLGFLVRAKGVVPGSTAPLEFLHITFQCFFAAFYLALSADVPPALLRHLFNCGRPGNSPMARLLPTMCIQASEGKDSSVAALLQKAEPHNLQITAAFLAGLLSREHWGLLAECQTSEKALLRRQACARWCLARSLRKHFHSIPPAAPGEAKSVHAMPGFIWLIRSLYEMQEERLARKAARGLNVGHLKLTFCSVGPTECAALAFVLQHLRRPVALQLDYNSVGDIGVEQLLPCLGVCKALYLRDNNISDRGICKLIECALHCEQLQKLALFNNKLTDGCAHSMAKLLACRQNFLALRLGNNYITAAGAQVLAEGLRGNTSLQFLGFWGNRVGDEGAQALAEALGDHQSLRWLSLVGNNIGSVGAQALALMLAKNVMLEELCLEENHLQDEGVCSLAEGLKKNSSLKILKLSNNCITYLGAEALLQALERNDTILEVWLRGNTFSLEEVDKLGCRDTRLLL
Chain of human serum albumin (P02768 25-609): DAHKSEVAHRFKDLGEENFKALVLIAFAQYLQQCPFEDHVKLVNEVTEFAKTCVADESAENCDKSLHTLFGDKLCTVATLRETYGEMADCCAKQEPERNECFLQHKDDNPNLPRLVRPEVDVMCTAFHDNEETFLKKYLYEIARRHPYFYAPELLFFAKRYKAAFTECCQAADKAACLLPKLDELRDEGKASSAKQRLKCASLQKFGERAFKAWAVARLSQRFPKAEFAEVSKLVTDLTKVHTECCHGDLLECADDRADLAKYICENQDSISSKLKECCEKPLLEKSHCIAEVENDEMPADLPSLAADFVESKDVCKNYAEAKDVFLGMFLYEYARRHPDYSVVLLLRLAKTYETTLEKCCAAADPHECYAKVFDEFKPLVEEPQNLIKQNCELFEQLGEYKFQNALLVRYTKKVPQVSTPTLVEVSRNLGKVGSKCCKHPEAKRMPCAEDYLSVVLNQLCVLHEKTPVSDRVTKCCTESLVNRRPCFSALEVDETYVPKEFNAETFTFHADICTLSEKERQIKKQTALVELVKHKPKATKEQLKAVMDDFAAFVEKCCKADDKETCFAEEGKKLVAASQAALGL

Compound	IC50 (NOD2) [µM]	IC50 (TNFR1) [µM]	IC50 (TLR2) [µM]	Papp [1] [×10⁻⁶ cm/s]	HSA binding (human serum albumin) [%]	IC50 (NOD1) [µM]
Cc1ccc(S(=O)(=O)Nc2cccc(C(=O)Nc3ccc4nc(C)sc4c3)c2)cc1 [Compound 16]	> 30	> 30	> 50	22	97.2	0.2
CCc1ccc(S(=O)(=O)Nc2cc(-n3c(C)nc4ccccc4c3=O)ccc2F)s1 [GSK223]	> 50	> 50	> 50	49	97.38	1
Cn1c(=O)[nH]c(=O)c2c1nc(CCSc1ccccc1)n2Cc1ccccc1 [SB711]	> 50	> 50	> 50		95.94	3.2

The remaining lines, values ahead:

IC50 (NOD2) [µM]	IC50 (TNFR1) [µM]	IC50 (TLR2) [µM]	Papp [1] [×10⁻⁶ cm/s]	HSA binding (human serum albumin) [%]	IC50 (NOD1) [µM]	Compound
> 50	> 50	> 50			0.06	Cc1nc2ccccc2c(=O)n1-c1ccc(Cl)c(NS(=O)(=O)c2ccccc2F)c1 [Compound 22]
	> 50	> 50	30	97.14	2	Cc1nc2ccc(NC(=O)c3cccc(NS(=O)(=O)c4ccc(F)cc4)c3)cc2s1 [GSK966]
